Assay results reported in article PMC9863266, “Preclinical Studies and Drug Combination of Low-Cost Molecules for Chagas Disease” (Pharmaceuticals, 2022).

Columns and labels:
[1] = Acute oral toxicity in mice (Up and Down test); format: in vivo; conditions: CD1 and Balb/c, mouse, in vivo; oral, microemulsion
Procedure: (§1) After verifying, through the studies indicated above, the low in vitro and in vivo toxicity and the potent trypanosomicidal activity of these molecules and following the steps of preclinical drug development, the acute oral toxicity in vivo in mice was tested. For this study, the compounds were administered orally in the same microemulsion that was used in the pharmacological study on the acute model of Chagas disease. The initial number of animals is defined by the software AOT425 Stat and also depends on if there are LD50 of compounds with similar structures. Variable numbers of animals could be used if there is some toxicity observed during the first administrations. […]. In this case, one of the animals died 10 days post-administration. The LD50 calculated by the statistical program from these experiments was 2000 mg/kg b.w., the maximal dose being used for oral administration. As a result, compound 793 has low acute toxicity in these conditions. For compound 1019, a maximum dose of 2000 mg/kg b.w. was started orally in five mice until one of the ends of the trial criteria was met. […] Throughout the test, during the 14 days, the mice were evaluated by the Irwin test and their masses were recorded. […]

[2] = system: CD1 and Balb/c mice; test: Acute oral toxicity in mice (Up and Down test); format: in vivo; conditions: 14 days
Procedure: as §1

[3] = system: epimastigote form of T. cruzi, Tulahuen 2 strain; test: Viability by flow cytometry, CA-AM/IP labeling; format: cell-based; conditions: 20 × IC50
Procedure: Additionally, we evaluated the viability of treated parasites by flow cytometry analysis after incubation with methylated acetoxycalcein (CA-AM) and propidium iodide (IP). […] Since the methodology used to determine the IC50 is based on 5 days of incubation, doses 20 times higher were used to analyze cell viability in shorter times. Similarly, these compounds’ concentrations were used to determine the death mechanism involved at the aforementioned times.
Viability studies of parasites by flow cytometry: The feasibility studies were carried out by evaluating the esterase activity of the parasites using Acetoxymethylated Calcein (CA-AM) and IP (Thermo Fisher Scientific). […] Fluorescence intensity for 10,000 events was acquired from two independent experiments and data were analyzed using BD CSampler software (BD Bioscience).

[4] = system: epimastigote form of T. cruzi, Tulahuen 2 strain; test: Mechanism of death by flow cytometry, AV/IP labeling; format: cell-based; conditions: 20 × IC50
Procedure: Parasites were immediately analyzed on an Accuri C6 flow cytometer (BD Bioscience, Franklin Lakes, New Jersey, U.S.). […] Ten thousand events were analyzed for each of the two independent experiments. Data were analyzed using BD CSampler software (BD Bioscience). Untreated parasites were used as a control. For the positive control of apoptosis and necrosis, the parasites were treated with hydrogen peroxide (H2O2) 50 µM and 100 µM for 2.5 h, respectively. These single-spot controls were used to calculate color compensation for flow cytometry.

[5] = Stability with microsomal and cytosolic fractions of rat hepatocytes; format: in vitro ADME
Procedure: The qualitative analysis of the in vitro metabolization by the rat hepatocyte microsomal (MF) and cytosolic (CF) fractions of compounds 793, 1019, and 1018 was performed using chromatographic techniques (reverse phase high performance liquid chromatography and thin-layer chromatography). For this, the metabolization was monitored at different times (0, 30, 60 min and 4 h). In both MF and CF of hepatocytes treated with compounds 793 and 1019, it was observed that after one hour, more than 50% (t1/2 < 60 min) of the compounds were metabolized to more hydrophilic compounds. For these compounds, it was observed the appearance of new products of metabolization over time. […] Regarding the structure and metabolism, the heterocycles (thienyl vs. furyl) could be responsible for these different stabilities: the furyl ring would metabolize to an open cycle version, making this system more labile in front of the hepatic metabolization.
For the determination of the stability in the different fractions, cytosolic and microsomal, rat hepatocytes protein fractions were purchased by Sigma® and used according to the previously reported protocol. […] The final concentration of the molecules in the aqueous medium was […] and prepared from stock in DMSO of 40 mM. The solutions were homogenized and incubated at 37 °C for 10 min, 30 min, 1 h, 2 h, 3 h, and 4 h (by TLC). Incubation at 37 °C was performed in a reaction volume of 1 mL containing 2.5 µL of 30 mM magnesium chloride (MgCl2); 2.5 µL of 40 mM nicotinamide […] dinucleotide phosphate (NADP^+); 5 µL of 350 mM glucose 6-phosphate (Glu6P); 5 µL of glucose 6-phosphate dehydrogenase (Glu6PD) 50 U/mL, 5 µL of the stock of 40 mM compounds and the volume of the phosphate buffer (pH = 7) was defined so that cytosolic (CF) and microsomal (MF) fraction present a final protein concentration of 0.1 mg/mL. After that, the stability of compounds 793, 1018, and 1019 in the CF and MF of rat hepatocytes was evaluated by HPLC at different times: 0, 30, and 60 min. […]

[6] = system: T. cruzi epimastigotes; conditions: read-out: In vitro anti-T. cruzi activity (multiple strains) (IC50); cited from earlier work
[7] = system: Leishmania infantum; set-up: method as in earlier work; conditions: promastigotes; read-out: In vitro anti-Leishmania infantum (visceral) activity (IC50); cited from earlier work

O=C(/C=C/C=C/c1ccco1)/C=C/C=C/c1ccco1 [Compound 793]
LD50 at 14 days [1]: 2000 mg/kg
Signs of acute toxicity (Irwin test, body mass) [2]: did not show signs of acute toxicity
CA-AM/IP labeling Q1-UR (CA-AM+/IP+ double-labeled parasites) ([3]; 6 h): 82%
CA-AM/IP labeling Q1-UR (CA-AM+/IP+ double-labeled parasites) ([3]; 24 h): 98%
AV/IP labeling Q1-UR (double AV+/IP+ labeling) ([4]; 6 h): 74%
AV/IP labeling Q1-UR (double AV+/IP+ labeling) ([4]; 24 h): 84%
In vitro metabolic stability (qualitative) ([5]; MF and CF of rat hepatocytes, up to 4 h): short half-life
Compound metabolized to more hydrophilic compounds ([5]; after one hour, both MF and CF): more than 50%
half-life at 400 µM ([5]; pH 7, both MF and CF of rat hepatocytes): < 1 h
IC50 [6]: 5 µM
IC50 [7]: 31 µM
